Columns and labels:
[1] = target: T1, human cyclin-dependent kinase 2 (Cdk2) (Homo sapiens, UniProt P24941); experiment: Kinetic thiol consumption assay with wild type Cdk2 (C177); assay type: binding; design: key to Rate enhancement, Cdk2 WT: k(Cdk2) divided by k(model thiol); Rate constant with Cdk2 (k(Cdk2)): unit not given here; conditions: for Rate constant with Cdk2 (k(Cdk2)): 500 μM ligand, 5 μM thiol, phosphate buffer pH 8; for Rate enhancement, Cdk2 WT: no additional mutations; for Rate constant with Cdk2 WT: Protein: Cdk2, cysteine position WT, in h^-1; for k(Cdk2)/k(Cdk2_mut) rate enhancement: model thiol Cdk2[C177A, F80C, K278C]; for k(Cdk2)/k(GSH) rate enhancement: model thiol glutathione
T1 construct: poly-histidine; made in house; host or cells: E. coli
Outline: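 His-tagged human Cdk2 from E. coli (sole surface cysteine C177) or a model thiol, each 5 μM in degassed phosphate buffer pH 8 with immobilized TCEP, reacted with acrylamides at room temperature. Fluorescence (ex 380/em 470) normalized to DMSO/thiol control over time; first-order rate constants, Cdk2 rate divided by model-thiol rate.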

Cdk2(C177A, F80C) = target: T2, Cdk2(C177A, F80C) (Homo sapiens, UniProt P24941, C177A/F80C); experiment: Kinetic thiol consumption assay with Cdk2 mutant F80C, incl. kobs versus concentration (Kd, k2); assay type: binding; design: key to Rate enhancement, Cdk2 F80C: Cdk2 rate constant divided by model-thiol rate constant; conditions: additional mutation C177A; for Rate constant with Cdk2 F80C: Protein: Cdk2, cysteine position F80C, in h^-1
T2 construct: poly-histidine; made in house; host or cells: E. coli
Outline: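 His-tagged Cdk2(C177A/F80C) from E. coli or model thiol, 5 μM in degassed phosphate buffer pH 8 with TCEP beads, reacted with acrylamide ligands; fluorescence (ex/em 380/470 nm) normalized to DMSO control and fitted to first-order decay for kobs. Kd and k2 obtained from hyperbolic fit of kobs versus ligand concentration.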

Cdk2(S276C) (C177A) = target: T3, Cdk2(S276C) (C177A) (Homo sapiens, UniProt P24941, C177A/S276C); experiment: Kinetic thiol consumption assay with Cdk2 mutant S276C; assay type: binding; design: key to Rate enhancement, Cdk2 S276C: rate constant with Cdk2 ÷ rate constant with model thiol (fold); conditions: additional mutation C177A; for Rate constant with Cdk2 S276C: Protein: Cdk2, cysteine position S276C, in h^-1
T3 construct: poly-histidine; made in house; host or cells: E. coli
Outline: (§1)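 Read-out is fluorescence at 380/470 nm, taken after 1 h at room temperature and normalized to a DMSO/thiol-only control over time. Thiol (5 μM Cdk2 mutant or model thiol) was in degassed pH 8 phosphate buffer with 2% v/v TCEP beads. Acrylamide rate constants for Cdk2 were divided by those with model thiol.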

Cdk2(N272C) (C177A) = target: T4, Cdk2(N272C) (C177A) (Homo sapiens, UniProt P24941, C177A/N272C); experiment: Kinetic thiol consumption assay with Cdk2 mutant N272C; assay type: binding; design: key to Rate enhancement, Cdk2 N272: rate constant with Cdk2 ÷ rate constant with model thiol (fold); conditions: for Rate enhancement, Cdk2 N272: Cdk2 N272, additional mutation C177A; for Rate constant with Cdk2 N272C: Protein: Cdk2, cysteine position N272C, additional mutation C177A, in h^-1
T4 construct: poly-histidine; made in house; host or cells: E. coli
Outline: as §1

Cdk2(T182C) (C177A) = target: T5, Cdk2(T182C) (C177A) (Homo sapiens, UniProt P24941, C177A/T182C); experiment: Kinetic thiol consumption assay with Cdk2 mutant T182C; assay type: binding; design: key to Rate enhancement, Cdk2 T182C: rate constant with Cdk2 ÷ rate constant with model thiol (fold); conditions: additional mutation C177A; for Rate constant with Cdk2 T182C: Protein: Cdk2, cysteine position T182C, in h^-1
T5 construct: poly-histidine; made in house; host or cells: E. coli
Outline: as §1

[2] = Kinetic thiol consumption assay with model thiol glutathione; assay type: physicochemical; design: Rate constant with glutathione (k(GSH)): unit not given here; conditions: for Rate constant with glutathione (k(GSH)): 500 μM ligand, 5 μM thiol, phosphate buffer pH 8; for Rate constant with Glutathione: Protein: Glutathione, cysteine position NA, in h-1
Outline: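 First, 5 μM glutathione in degassed phosphate buffer (pH 8) receives immobilized TCEP beads (2% v/v). Then acrylamide is added and plates incubate 1 h at room temperature. Finally, fluorescence (380/470 nm) is normalized and fitted to first-order decay for rate constants.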

Cdk2(R122C) (C177A) = target: T6, Cdk2(R122C) (C177A) (Homo sapiens, UniProt P24941, C177A/R122C); experiment: Kinetic thiol consumption assay with Cdk2 mutant R122C; assay type: binding; design: key to Rate enhancement, Cdk2 R122C: rate constant with Cdk2 ÷ rate constant with model thiol (fold); conditions: additional mutation C177A; for Rate constant with Cdk2 R122C: Protein: Cdk2, cysteine position R122C, in h-1
T6 construct: poly-histidine; made in house; host or cells: E. coli
Outline: as §1

Cdk2[C177A, F80C, K278C] = target: T7, Cdk2[C177A, F80C, K278C] (Homo sapiens, UniProt P24941, C177A/F80C/K278C); experiment: Kinetic thiol consumption assay with mutant Cdk2 as model thiol; assay type: binding; design: unit not given here; conditions: 500 μM ligand, 5 μM thiol, phosphate buffer pH 8
T7 construct: poly-histidine; made in house; host or cells: E. coli
Procedure: A library of 120 acrylamides was screened against a) human cyclin-dependent kinase 2 (Cdk2, which contains one surface exposed cysteine residue—C177), prepared by cloning cDNA into the pRSETA bacterial expression vector to generate a poly-histidine tagged Cdk2 fusion that was purified from E. coli using standard techniques, and b) a model thiol (specific details are given below). The structures of these 120 acrylamides are set out in Table 1, above.
To wells containing 150 μL thiol (Cdk2 or model thiol) (5 μM) in degassed phosphate buffer (pH 8) was added immobilized TCEP beads (2% v/v).
After incubation of the fluorescence plates for 1 hour at room temperature, fluorescence measurements (excitation/emission of 380/470 nm) were taken on a PerkinElmer EnVision multilabel plate reader and processed with EnVision Workstation version 1.12.
Fluorescence measurements were normalized against a DMSO/thiol only control and plotted against time.
Rate constants were calculated using GraphPad software Prism version 6 by fitting a first order exponential decay to the data. The rate constant for each acrylamide with Cdk2 was divided by the rate constant for that fragment with the model thiol to provide the rate enhancement for each ligand candidate.
The model thiol used in Example 2 is a mutant form of human Cdk2 (C177A, F80C, K278C) which contains two engineered surface exposed cysteine residues. Mutations were introduced by site-directed mutagenesis and the resulting cDNA was cloned into the pRSETA bacterial expression vector to generate a poly-histidine tagged Cdk2 fusion that was purified from E. coli using standard techniques.

Cdk2(H71C) (C177A) = target: T8, Cdk2(H71C) (C177A) (Homo sapiens, UniProt P24941, C177A/H71C); experiment: Kinetic thiol consumption assay with Cdk2 mutant H71C; assay type: binding; design: key to Rate enhancement, Cdk2 H71C: rate constant with Cdk2 ÷ rate constant with model thiol (fold); conditions: additional mutation C177A; for Rate constant with Cdk2 H71C: Protein: Cdk2, cysteine position H71C, in h^-1
T8 construct: poly-histidine; made in house; host or cells: E. coli
Outline: as §1

Cdk2(S181C) (C177A) = target: T9, Cdk2(S181C) (C177A) (Homo sapiens, UniProt P24941, C177A/S181C); experiment: Kinetic thiol consumption assay with Cdk2 mutant S181C; assay type: binding; design: key to Rate enhancement, Cdk2 S181C: rate constant with Cdk2 ÷ rate constant with model thiol (fold); conditions: additional mutation C177A; for Rate constant with Cdk2 S181C: Protein: Cdk2, cysteine position S181C, in h^-1
T9 construct: poly-histidine; made in house; host or cells: E. coli
Outline: as §1

Structure (SMILES)	Rate constant with Cdk2 (k(Cdk2)) [1]	Rate enhancement, Cdk2 WT [1]	Rate constant with Cdk2 WT [1]	k(Cdk2)/k(Cdk2_mut) rate enhancement [1]	k(Cdk2)/k(GSH) rate enhancement [1]	Rate enhancement, Cdk2 F80C (Cdk2(C177A, F80C))	Rate constant with Cdk2 F80C (Cdk2(C177A, F80C))	Rate enhancement, Cdk2 S276C (Cdk2(S276C) (C177A))	Rate constant with Cdk2 S276C (Cdk2(S276C) (C177A))	Rate enhancement, Cdk2 N272 (Cdk2(N272C) (C177A))	Rate constant with Cdk2 N272C (Cdk2(N272C) (C177A))	Rate enhancement, Cdk2 T182C (Cdk2(T182C) (C177A))	Rate constant with Cdk2 T182C (Cdk2(T182C) (C177A))	Rate constant with glutathione (k(GSH)) [2]	Rate constant with Glutathione [2]	Rate enhancement, Cdk2 R122C (Cdk2(R122C) (C177A))	Rate constant with Cdk2[C177A, F80C, K278C] (k(Cdk2_mut)) (Cdk2[C177A, F80C, K278C])	Rate enhancement, Cdk2 H71C (Cdk2(H71C) (C177A))	Rate enhancement, Cdk2 S181C (Cdk2(S181C) (C177A))	Rate constant with Cdk2 S181C (Cdk2(S181C) (C177A))	further results
C=CC(=O)NCc1ccc(F)cc1 [BN-62]	0.0019	1.86	0.002863	1.136	1.213	0.6901	0.001062	0.7693	0.001184	1.006	0.001549	0.679	0.001045	0.00157	0.001539	0.125	0.00167	2.5393E−11	1.1306E−11	1.74E−14	Rate constant with Cdk2 R122C (Cdk2(R122C) (C177A)): 0.0001923; Rate constant with Cdk2 H71C (Cdk2(H71C) (C177A)): 3.908E−14
C=CC(=O)NCc1ccc(OC)cc1 [BN-63]	0.00194	1.461	0.002998	0.5882	0.9011	0.5692	0.001168	0.393	0.0008064	0.5	0.001026	0.7193	0.001476	0.00215	0.002052	0	0.0033	3.1842E−11	0.4386	0.0009	Rate constant with Cdk2 H71C (Cdk2(H71C) (C177A)): 6.534E−14
C=CC(=O)NCc1ccc(C(=O)OC)cc1 [BN-65]	0.00121	0.7866	0.001861	0.3031	0.4134	2.644	0.006255	1.179	0.002789	0.9112	0.002156	0.8711	0.002061	0.00292	0.002366	0	0.00398	0.538	0.5182	0.001226	Rate constant with Cdk2 H71C (Cdk2(H71C) (C177A)): 0.001273
C=CC(=O)NCc1ccc(-c2csnn2)cc1 [BN-66]	0.00089	0.9753	0.001459	0.2541	0.5565	2.336	0.003494	0		1.553	0.002323	3.479	0.005204	0.0016	0.001496	0	0.0035	0.7553	0.8476	0.001268	Rate constant with Cdk2 H71C (Cdk2(H71C) (C177A)): 0.00113
C=CC(=O)NC1CCN(Cc2ccccc2)CC1 [BN-78]	0.00116	0.1591	0.001157	0.5905	0.2873	0.2437	0.001773	0.1622	0.00118	0.5049	0.003673	0.1316	0.0009576	0.00403	0.007274	0.2392	0.00196	0	0.09002	0.0006548	Rate constant with Cdk2 R122C (Cdk2(R122C) (C177A)): 0.00174

Reference: patent US11415579B2, “Assay for measuring a rate of reaction between a target and a ligand candidate” (Imperial College Innovations Ltd., priority 2016, dated 2022)
